Test results reported in ChEMBL document CHEMBL5518206, “Hit-to-Lead Identification and Validation of a Triaromatic Pleuromutilin Antibiotic Candidate” (J Med Chem, 2024).
Values after ≈ are worked out from the molar mass of the structure shown. Active and inactive are the calls of the source. No cut-off for these calls is given here.

What was measured:
[1] = test system: Staphylococcus aureus; test: In vivo antibacterial activity against methicillin susceptible Staphylococcus aureus ATCC 25923 infected sepsis/peritonitis infection model assessed as reduction in bacterial burden in blood at 80 mg/kg, sc twice at 1 hr and 3 hrs measured after 6 hrs; assay type: functional
[2] = test system: Staphylococcus aureus; test: In vivo antibacterial activity against methicillin susceptible Staphylococcus aureus ATCC 25923 infected sepsis/peritonitis infection model assessed as reduction in bacterial burden in peritoneum at 80 mg/kg, sc twice at 1 hr and 3 hrs measured after 6 hrs; assay type: functional
[3] = in vitro; details: human, liver microsomes
[4] = test system: Staphylococcus epidermidis; test: Antibacterial activity against Staphylococcus epidermidis assessed as inhibition of visible growth incubated for 20 to 24 hrs by microbroth serial dilution assay; assay type: functional, organism-based; details: time 20-24 hrs
[5] = target: hERG (KCNH2) (Homo sapiens, UniProt Q12809); test: Inhibition of hERG expressed in HEK293 cells assessed as tail current at 60 uM measured after 8 mins by automated whole-cell Qpatch Clamp assay relative to control; details: HEK293 cells that express hERG
[6] = test system: Staphylococcus aureus; test: Antibacterial activity against multi drug-resistant Staphylococcus aureus USA300 FPR3757 assessed as inhibition of visible growth incubated for 20 to 24 hrs by microbroth serial dilution assay; assay type: functional; details: time 20-24 hrs, read-out: MIC100
[7] = test system: Listeria; test: Antibacterial activity against Listeria assessed as inhibition of visible growth incubated for 20 to 24 hrs by microbroth serial dilution assay; assay type: functional, organism-based; details: time 20-24 hrs
[8] = test system: Escherichia coli; test: Antibacterial activity against Escherichia coli assessed as inhibition of visible growth incubated for 20 to 24 hrs by microbroth serial dilution assay; assay type: functional, organism-based; details: time 20-24 hrs
[9] = target: Voltage-gated inwardly rectifying potassium channel KCNH2 (Homo sapiens, UniProt Q12809); test: Inhibition of hERG expressed in HEK293 cells assessed as tail current measured after 8 mins by automated whole-cell Qpatch Clamp assay
[10] = test system: Enterococcus faecalis; test: Antibacterial activity against Enterococcus faecalis assessed as inhibition of visible growth incubated for 20 to 24 hrs by microbroth serial dilution assay; assay type: functional; details: time 20-24 hrs, read-out: MIC100
[11] = Inhibition of P-gp efflux in MDCKII-MDR1 cells using calcein-AM as substrate assessed as intracellular calcein fluorescence preincubated for 15 mins followed by substrate addition and measured by fluorescence based assay; assay type: cell-based; details: Canis lupus familiaris
[12] = test system: Streptococcus pneumoniae; test: Antibacterial activity against Streptococcus pneumoniae assessed as inhibition of visible growth incubated for 20 to 24 hrs by microbroth serial dilution assay; assay type: functional; details: time 20-24 hrs, read-out: MIC100
[13] = in vitro; details: mouse, liver microsomes
[14] = in vitro; details: mouse, liver microsomes; remark: listed apart in the source
[15] = test system: Enterococcus faecium; test: Antibacterial activity against Linezolid/Ampicillin/ciprofloxacin/Vancomycin-resistant Enterococcus faecium assessed as inhibition of visible growth incubated for 20 to 24 hrs by microbroth serial dilution assay; assay type: functional; details: time 20-24 hrs, read-out: MIC100
[16] = test system: Enterococcus faecium; test: Antibacterial activity against Vancomycin-resistant Enterococcus faecium assessed as inhibition of visible growth incubated for 20 to 24 hrs by microbroth serial dilution assay; assay type: functional; details: time 20-24 hrs, read-out: MIC100
[17] = in vitro; details: human, liver microsomes; remark: listed apart in the source
[18] = test system: Staphylococcus aureus; test: (§1) Induction of resistant development in lefamulin 5 passages resistance developed Staphylococcus aureus USA300 FPR3757 assessed as fold increase in MIC at sub-MIC concentration measured after 9 passages with conjugate by serial passage assay; assay type: functional
[19] = test system: Staphylococcus aureus; test: (§2) Induction of resistant development in lefamulin 5 passages resistance developed Staphylococcus aureus USA300 FPR3757 assessed as fold increase in MIC at sub-MIC concentration measured after 18 passages with conjugate by serial passage assay; assay type: functional
[20] = test system: Staphylococcus aureus; test: as §1, with “-(6-(6-(Piperazin-1-y1)-9H-purin-9-y)methyl)pyridin-3-y1)-1H-1,2,3-triazol-1-yl)-22-deoxypleuromutilin-16” for “lefamulin 5”, “22” for “9”; assay type: functional
[21] = test system: Staphylococcus aureus; test: as §1, with “-(6-(6-(Piperazin-1-y1)-9H-purin-9-y)methyl)pyridin-3-y1)-1H-1,2,3-triazol-1-yl)-22-deoxypleuromutilin-16” for “lefamulin 5”, “25” for “9”; assay type: functional
[22] = test system: Staphylococcus aureus; test: (§3) Induction of resistant development in lefamulin 5 passages resistance developed Staphylococcus aureus USA300 FPR3757 assessed as fold increase in MIC at sub-MIC concentration measured after 13 passages with conjugate by serial passage assay; assay type: functional
[23] = test system: Staphylococcus aureus; test: (§4) Induction of resistant development in linezolid 5 passages resistance developed Staphylococcus aureus USA300 FPR3757 assessed as fold increase in MIC at sub-MIC concentration measured after 28 passages with conjugate by serial passage assay; assay type: functional
[24] = test system: Staphylococcus aureus; test: Induction of resistant development in lefamulin 5 passages resistance developed Staphylococcus aureus USA300 FPR3757 assessed as fold increase in MIC at sub-MIC concentration measured after 28 passages with conjugate by serial passage assay; assay type: functional
[25] = test system: Staphylococcus aureus; test: Induction of resistant development in linezolid 5 passages resistance developed Staphylococcus aureus USA300 FPR3757 assessed as fold increase in MIC at sub-MIC concentration measured after 25 passages with conjugate by serial passage assay; assay type: functional
[26] = test system: Staphylococcus aureus; test: as §4, with “-(6-(6-(Piperazin-1-y1)-9H-purin-9-y)methyl)pyridin-3-y1)-1H-1,2,3-triazol-1-yl)-22-deoxypleuromutilin-16” for “linezolid 5”; assay type: functional
[27] = test system: Staphylococcus aureus; test: as §2, with “-(6-(6-(Piperazin-1-y1)-9H-purin-9-y)methyl)pyridin-3-y1)-1H-1,2,3-triazol-1-yl)-22-deoxypleuromutilin-16” for “lefamulin 5”; assay type: functional
[28] = test system: Staphylococcus aureus; test: (§5) Induction of resistant development in lefamulin 5 passages resistance developed Staphylococcus aureus USA300 FPR3757 assessed as fold increase in MIC at sub-MIC concentration measured after 5 passages with conjugate by serial passage assay; assay type: functional
[29] = test system: Staphylococcus aureus; test: as §1, with “-(6-(6-(Piperazin-1-y1)-9H-purin-9-y)methyl)pyridin-3-y1)-1H-1,2,3-triazol-1-yl)-22-deoxypleuromutilin-16” for “lefamulin 5”; assay type: functional
[30] = test system: Staphylococcus aureus; test: Induction of resistant development in linezolid 5 passages resistance developed Staphylococcus aureus USA300 FPR3757 assessed as fold increase in MIC at sub-MIC concentration measured after 9 passages with conjugate by serial passage assay; assay type: functional
[31] = test system: Staphylococcus aureus; test: Induction of resistant development in lefamulin 5 passages resistance developed Staphylococcus aureus USA300 FPR3757 assessed as fold increase in MIC at sub-MIC concentration measured after 22 passages with conjugate by serial passage assay; assay type: functional
[32] = test system: Staphylococcus aureus; test: as §5, with “-(6-(6-(Piperazin-1-y1)-9H-purin-9-y)methyl)pyridin-3-y1)-1H-1,2,3-triazol-1-yl)-22-deoxypleuromutilin-16” for “lefamulin 5”; assay type: functional
[33] = test system: Staphylococcus aureus; test: Induction of resistant development in linezolid 5 passages resistance developed Staphylococcus aureus USA300 FPR3757 assessed as fold increase in MIC at sub-MIC concentration measured after 13 passages with conjugate by serial passage assay; assay type: functional
[34] = test system: Staphylococcus aureus; test: as §3, with “-(6-(6-(Piperazin-1-y1)-9H-purin-9-y)methyl)pyridin-3-y1)-1H-1,2,3-triazol-1-yl)-22-deoxypleuromutilin-16” for “lefamulin 5”; assay type: functional
[35] = test system: Staphylococcus aureus; test: Induction of resistant development in linezolid 5 passages resistance developed Staphylococcus aureus USA300 FPR3757 assessed as fold increase in MIC at sub-MIC concentration measured after 22 passages with conjugate by serial passage assay; assay type: functional
[36] = test system: Staphylococcus aureus; test: Induction of resistant development in linezolid 5 passages resistance developed Staphylococcus aureus USA300 FPR3757 assessed as fold increase in MIC at sub-MIC concentration measured after 5 passages with conjugate by serial passage assay; assay type: functional
[37] = test system: Staphylococcus aureus; test: Induction of resistant development in linezolid 5 passages resistance developed Staphylococcus aureus USA300 FPR3757 assessed as fold increase in MIC at sub-MIC concentration measured after 18 passages with conjugate by serial passage assay; assay type: functional
[38] = test system: Staphylococcus aureus; test: Induction of resistant development in lefamulin 5 passages resistance developed Staphylococcus aureus USA300 FPR3757 assessed as fold increase in MIC at sub-MIC concentration measured after 25 passages with conjugate by serial passage assay; assay type: functional
[39] = test system: Staphylococcus aureus; test: Antibacterial activity against multi drug-resistant Staphylococcus aureus USA300 FPR3757 assessed as reduction in bacterial growth at 1 times of MIC concentration measured after 24 hrs by time-kill assay; assay type: functional, organism-based

Sequence of Voltage-gated inwardly rectifying potassium channel KCNH2 (Q12809 whole entry): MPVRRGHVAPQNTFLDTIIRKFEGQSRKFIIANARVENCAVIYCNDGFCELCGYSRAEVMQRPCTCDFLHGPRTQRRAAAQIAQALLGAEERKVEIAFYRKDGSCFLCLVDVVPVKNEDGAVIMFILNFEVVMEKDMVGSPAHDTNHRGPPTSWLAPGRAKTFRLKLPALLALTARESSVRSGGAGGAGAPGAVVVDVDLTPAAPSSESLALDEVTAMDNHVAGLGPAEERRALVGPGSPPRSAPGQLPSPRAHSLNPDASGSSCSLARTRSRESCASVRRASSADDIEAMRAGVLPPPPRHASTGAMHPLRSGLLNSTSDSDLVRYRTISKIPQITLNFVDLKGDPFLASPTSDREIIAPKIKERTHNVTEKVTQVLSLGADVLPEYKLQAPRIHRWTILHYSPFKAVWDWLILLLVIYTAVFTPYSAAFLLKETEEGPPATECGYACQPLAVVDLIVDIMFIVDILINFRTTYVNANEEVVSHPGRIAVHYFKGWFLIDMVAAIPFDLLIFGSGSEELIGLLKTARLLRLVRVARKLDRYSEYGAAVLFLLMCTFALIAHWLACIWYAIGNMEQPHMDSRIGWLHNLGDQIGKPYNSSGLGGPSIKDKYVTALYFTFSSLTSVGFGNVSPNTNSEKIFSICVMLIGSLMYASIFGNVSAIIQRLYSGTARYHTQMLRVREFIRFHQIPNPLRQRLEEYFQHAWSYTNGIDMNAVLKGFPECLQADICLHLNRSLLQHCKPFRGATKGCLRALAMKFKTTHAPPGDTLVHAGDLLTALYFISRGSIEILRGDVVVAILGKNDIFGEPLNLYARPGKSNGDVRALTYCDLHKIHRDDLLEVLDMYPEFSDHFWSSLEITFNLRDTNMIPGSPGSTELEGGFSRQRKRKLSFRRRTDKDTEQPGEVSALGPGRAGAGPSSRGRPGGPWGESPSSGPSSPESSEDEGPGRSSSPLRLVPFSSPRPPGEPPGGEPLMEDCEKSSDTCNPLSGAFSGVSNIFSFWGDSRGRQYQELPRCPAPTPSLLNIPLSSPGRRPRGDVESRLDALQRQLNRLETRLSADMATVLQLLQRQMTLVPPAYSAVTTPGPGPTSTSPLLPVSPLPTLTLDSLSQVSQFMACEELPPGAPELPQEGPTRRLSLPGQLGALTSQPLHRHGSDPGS
Sequence of hERG (KCNH2) (Q12809 whole entry): as above

SMILES: C=C[C@]1(C)C[C@@H](OC(=O)Cn2cc(-c3ccc(Cn4cnc5c(N6CCNCC6)ncnc54)nc3)nn2)[C@]2(C)[C@H](C)CC[C@]3(CCC(=O)[C@H]32)[C@@H](C)[C@@H]1O.Cl.Cl
- Activity [1]: 2 log10FFU/ml
- Activity [2]: 1 log10FFU/ml

SMILES: C=C[C@]1(C)C[C@@H](OC(=O)Cn2cc(-c3ccc(Cn4cnc5c(N)ncnc54)cc3)nn2)[C@]2(C)[C@H](C)CC[C@]3(CCC(=O)[C@H]32)[C@@H](C)[C@@H]1O
- half-life at 0.5 h, 1 µM [3]: 1.2 min
- Activity [4]: inactive
- inhibition at 8 min, 60 µM [5]: 26.3%
- MIC [6]: 0.03 µg/mL (≈ 0.046 µM)
- Activity [7]: inactive
- Activity [8]: inactive
- IC50 [9]: > 200 µM
- MIC [10]: 0.25 µg/mL (≈ 0.383 µM)
- IC50 [11]: 36 µM
- MIC [12]: 0.5 µg/mL (≈ 0.766 µM)
- CLint scaled at 0.5 h, 1 µM [13]: > 600 L/h/kg
- half-life at 0.5 h, 1 µM [14]: < 0.5 min
- MIC [15]: 0.12 µg/mL (≈ 0.184 µM)
- MIC [16]: 0.12 µg/mL (≈ 0.184 µM)
- CLint scaled at 0.5 h, 1 µM [17]: 305 L/h/kg

SMILES: CC(=O)NC[C@H]1CN(c2ccc(N3CCOCC3)c(F)c2)C(=O)O1
- fold change (FC) [18]: 2
- fold change (FC) [19]: 2
- fold change (FC) [20]: 8
- fold change (FC) [21]: 8
- fold change (FC) [22]: 4
- fold change (FC) [23]: 32
- fold change (FC) [24]: 2
- fold change (FC) [25]: 32
- fold change (FC) [26]: 16
- fold change (FC) [27]: 4
- fold change (FC) [28]: 8
- fold change (FC) [29]: 4
- fold change (FC) [30]: 4
- fold change (FC) [31]: 2
- fold change (FC) [32]: 8
- fold change (FC) [33]: 8
- fold change (FC) [34]: 4
- fold change (FC) [35]: 32
- fold change (FC) [36]: 4
- fold change (FC) [37]: 16
- fold change (FC) [38]: 2

SMILES: C=C[C@]1(C)C[C@@H](OC(=O)Cn2cc(-c3ccc(Cn4cnc5c(N6CCNCC6)ncnc54)nc3)nn2)[C@]2(C)[C@H](C)CC[C@]3(CCC(=O)[C@H]32)[C@@H](C)[C@@H]1O
- fold change (FC) [18]: 16
- fold change (FC) [19]: 32
- fold change (FC) [20]: 32
- fold change (FC) [21]: 64
- fold change (FC) [22]: 32
- Activity [39]: inactive
- fold change (FC) [23]: 32
- fold change (FC) [24]: 128
- fold change (FC) [25]: 32
- fold change (FC) [26]: 64
- fold change (FC) [27]: 32
- fold change (FC) [28]: 4
- fold change (FC) [29]: 8
- fold change (FC) [30]: 8
- fold change (FC) [31]: 32
- fold change (FC) [32]: 8
- fold change (FC) [33]: 16
- fold change (FC) [34]: 16
- fold change (FC) [35]: 32
- fold change (FC) [36]: 4
- fold change (FC) [37]: 8
- fold change (FC) [38]: 64
